# Assays:
# Echinochloa crus-galli [1] = assay: Herbicidal activity against Echinochloa crus-galli (barnyard grass) at 75 g a.i./ha measured after 14 days relative to control; type: functional
# Dactylis glomerata [2] = assay: Herbicidal activity against Dactylis glomerata at 75 g a.i./ha measured after 14 days relative to control; type: functional
# Cyperus iria [3] = assay: Herbicidal activity against Cyperus iria at 75 g a.i./ha measured after 14 days relative to control; type: functional
# Trifolium repens [4] = assay: Herbicidal activity against Trifolium repens at 75 g a.i./ha measured after 14 days relative to control; type: functional
# Cyperus iria [5] = assay: Herbicidal activity against Cyperus iria measured after 14 days relative to control; type: functional, organism-based; conditions: for EC50: 336 h
# Dactylis glomerata [6] = assay: Herbicidal activity against Dactylis glomerata measured after 14 days relative to control; type: functional, organism-based; conditions: for EC50: 336 h
# Trifolium repens [7] = assay: Herbicidal activity against Trifolium repens measured after 14 days relative to control; type: functional, organism-based; conditions: for EC50: 336 h
# Echinochloa crus-galli [8] = assay: Herbicidal activity against Echinochloa crus-galli (barnyard grass) measured after 14 days relative to control; type: functional, organism-based; conditions: for EC50: 336 h
# Dactylis glomerata [9] = assay: Herbicidal activity against Dactylis glomerata at 15 g a.i./ha measured after 14 days relative to control; type: functional
# Trifolium repens [10] = assay: Herbicidal activity against Trifolium repens at 15 g a.i./ha measured after 14 days relative to control; type: functional
# Echinochloa crus-galli [11] = assay: Herbicidal activity against Echinochloa crus-galli (barnyard grass) at 15 g a.i./ha measured after 14 days relative to control; type: functional
# Cyperus iria [12] = assay: Herbicidal activity against Cyperus iria at 15 g a.i./ha measured after 14 days relative to control; type: functional
SMILES,Activity (Echinochloa crus-galli [1]),Activity (Dactylis glomerata [2]),Activity (Cyperus iria [3]),Activity (Trifolium repens [4]),Activity (Cyperus iria [5]),EC50 (Cyperus iria [5]),Activity (Dactylis glomerata [6]),EC50 (Dactylis glomerata [6]),Activity (Trifolium repens [7]),EC50 (Trifolium repens [7]),Activity (Echinochloa crus-galli [8]),EC50 (Echinochloa crus-galli [8]),Activity (Dactylis glomerata [9]),Activity (Trifolium repens [10]),Activity (Echinochloa crus-galli [11]),Activity (Cyperus iria [12])
CSc1nn(-c2ccccc2)c(NCCCN=C=S)c1C#N,54.62%,55.62%,57.69%,56.46%,,,,,,,,,,,,
CCOC(=O)c1c(SC)nn(C)c1NCCCN=C=S,52.32%,56.25%,58.96%,62.39%,,,,,,,,,,,,
Cn1nc(SCc2ccccc2)c(C#N)c1NCCCN=C=S,44.62%,31.25%,42.56%,34.48%,,,,,,,,,,,,
CCOC(=O)c1c(SC)nn(-c2ccccc2)c1NCCCN=C=S,58.93%,59.08%,60.23%,60.68%,,,,,,,,,,,,
CCOC(=O)c1c(SCc2ccccc2)nn(C)c1NCCCN=C=S,63.32%,46.53%,55.36%,45.12%,,,,,,,,,,,,
CCOC(=O)c1c(SCc2ccccc2)nn(-c2ccccc2)c1NCCCN=C=S,65.32%,64.53%,68.59%,65.78%,,,,,,,,,,,,
N#Cc1c(SCc2ccccc2)nn(-c2ccccc2)c1NCCCN=C=S,79.39%,79.26%,86.53%,75.57%,Dose-dependent effect,65.8 µg/mL,Dose-dependent effect,62.4 µg/mL,Dose-dependent effect,67.7 µg/mL,Dose-dependent effect,64.3 µg/mL,,,,
CSc1nn(C)c(NCCCN=C=S)c1C#N,78.69%,74.33%,70.23%,73.33%,Dose-dependent effect,64.9 µg/mL,Dose-dependent effect,59.4 µg/mL,Dose-dependent effect,67.4 µg/mL,Dose-dependent effect,65.3 µg/mL,,,,
C=CCN=C=S [ALLYL ISOTHIOCYANATE],25.86%,40.12%,32.59%,13.33%,,,,,,,,,,,,
CCOC(=O)c1ccccc1S(=O)(=O)NC(=O)Nc1nc(Cl)cc(OC)n1 [CHLORIMURON ETHYL],,,,,,12.9 µg/mL,,15.2 µg/mL,,9.98 µg/mL,,10.7 µg/mL,78.25%,95.69%,98.32%,92.23%

# Reference: ChEMBL document CHEMBL3046919, “Synthesis and herbicidal activity of substituted pyrazole isothiocyanates” (Molecules, 2012)
